{"source": "patent US8110545B2", "about": "“Non-proteolysable oligopeptides that inhibit glycoprotein GP41 of the aids virus” (priority 2005, dated 2012)", "target": "T1, gp41 of HIV-1 (Human immunodeficiency virus type 1 group M subtype B, UniProt P03375)", "T1 construct": "cell-cell fusion induced by gp41 of HIV-1 expressed in CHO cells; expressed in transfected cells; host or cells: CHO cells (effector), co-cultured with CD4-expressing HeLa cells (target)", "T1 sequence (P03375 512-856)": "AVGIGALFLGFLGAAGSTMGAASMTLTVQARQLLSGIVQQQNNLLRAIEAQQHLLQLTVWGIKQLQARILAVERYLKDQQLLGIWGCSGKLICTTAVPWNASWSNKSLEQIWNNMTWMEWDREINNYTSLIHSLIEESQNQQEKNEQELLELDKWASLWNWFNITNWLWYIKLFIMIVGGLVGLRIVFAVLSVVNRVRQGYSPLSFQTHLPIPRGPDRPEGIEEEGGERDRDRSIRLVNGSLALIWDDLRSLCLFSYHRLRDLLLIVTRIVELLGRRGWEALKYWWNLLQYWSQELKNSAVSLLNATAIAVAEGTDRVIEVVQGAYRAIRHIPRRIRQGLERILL", "assay_type": "cell-based, HIV-1 (BH10 isolate)", "details": "20 nM T-20, positive inhibition control, 37° C., 16 hours", "description": "The effect has been measured as the inhibition of cell-cell fusion induced by gp41 of HIV-1 expressed in CHO cells, which takes place when they are mixed with CD4 receptor-expressing HeLa cells (BH10 isolate: Gene Bank access number M15654). The oligopeptide concentration was 5 μM and the temperature was 37° C. Incubation in the cell culture medium (GMEM-S supplemented with 1 mM sodium pyruvate and 0.4 mM methionine sulfoximine) was performed for 16 hours. The bars correspond to the number of nuclei in syncytial plates (fused cells with more than 4 nuclei) per field after this time. The means of 4 individual measurements plus the standard deviations are shown.\nAs a positive inhibition control, cells treated with 20 nM of T-20 (enfuvirtide) are shown. The sample, in the sole presence of gqidev, was processed following the protocol described in the preceding figure.\nThe lines represent adjustments to hyperbolic-type functions. The assay, in the presence of increasing quantities of oligopeptides, was performed and quantified in accordance with the description of FIG. 3. […]\nIt was added, at a concentration of 5 μM (micromolar), to the cell culture medium (GMEM-S supplemented with 1 mM sodium pyruvate and 0.4 mM methionine sulfoximine). […] The activity of gp41 is detected by the formation of multi-nucleated cells (CTL panel) produced by the fusion of the plasma membranes."}
{"substance": "enfuvirtide", "values": [{"measurement": "inhibitory effect on gp41 activity (cell-cell fusion, formation of syncytia)", "value": "comparable inhibition of gp41"}]}
